Measurements from patent publication US7459444B2, “Inhibitors of chymase” (Janssen Pharmaceutica N.V., priority 2004, dated 2008).

Target: T1, human skin chymase (Homo sapiens, UniProt P23946)
T1 construct: using human skin chymase (Cortex Biochem); purchased Cortex Biochem
T1 sequence (P23946 22-247): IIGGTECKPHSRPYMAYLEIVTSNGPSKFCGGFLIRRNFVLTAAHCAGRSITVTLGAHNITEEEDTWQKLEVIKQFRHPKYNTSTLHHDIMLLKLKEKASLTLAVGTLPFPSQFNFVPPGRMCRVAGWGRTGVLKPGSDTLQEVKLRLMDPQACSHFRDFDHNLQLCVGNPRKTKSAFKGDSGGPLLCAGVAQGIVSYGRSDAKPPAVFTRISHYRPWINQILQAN
Experiment: Enzyme-catalyzed hydrolysis assay (chymase inhibition)
Format: biochemical
Conditions: 10 nM enzyme, 0.7 mM Suc-Ala-Ala-Pro-Phe-pNa, pH 8.0, 37° C., 30 minutes
Procedure: Enzyme-catalyzed hydrolysis rates were measured spectro-photometrically using human skin chymase (Cortex Biochem), a chromogenic substrate (Suc-Ala-Ala-Pro-Phe-pNa) (Bachem) in aqueous buffer (450 mM Tris, 1800 mM NaCl, pH 8.0), and a microplate reader (Molecular Devices). […] Percent inhibition was calculated by comparing the initial reaction slopes of the samples without inhibitor to those with inhibitor. IC50 values were determined using a four parameter fit logistics model. The term “NT” indicates a compound that was not tested.

Row | Compound | IC50
1 | CP(=O)(O)C(C(=O)N/C=C/c1ccccn1)c1csc2ccc(Cl)cc12 (stereo not shown) [Cpd 150] | 0.091 ± 0.02 µM
2 | O=C(Nc1ccc2ccccc2c1)C(c1csc2ccc(F)cc12)P(=O)(O)O (stereo not shown) [Cpd 10] | 0.029 ± 0.01 µM
3 | Cn1cc(C(C(=O)Nc2ccc3ccccc3c2)P(=O)(O)O)c2cc(C#N)ccc21 (stereo not shown) [Cpd 65] | 0.84 ± 0.19 µM
4 | COCCCP(=O)(O)C(C(=O)Nc1ccc2ccccc2c1)c1csc2ccc(Cl)cc12 (stereo not shown) [Cpd 34] | 0.22 ± 0.01 µM
5 | CC(C)n1cc(C(C(=O)Nc2ccc3ccccc3c2)P(=O)(O)O)c2ccccc21 (stereo not shown) [Cpd 77] | 1.48 ± 0.45 µM
6 | O=C(Nc1ccc2ccccc2c1)C(c1csc2ccc(Cl)cc12)P(=O)(O)CCCc1ccccc1 (stereo not shown) [Cpd 48] | 0.421 ± 0.151 µM
7 | CP(=O)(O)C(C(=O)N/C=C/c1ccccc1F)c1csc2ccc(Cl)cc12 (stereo not shown) [Cpd 21] | 0.08 ± 0.02 µM
8 | O=C(Nc1cc2ccccc2cc1C(=O)N1CCC(n2nnc3ccccc32)CC1)C(c1cccc2ccccc12)P(=O)(O)O (stereo not shown) [Cpd 100] | 3 ± 1.43 µM
9 | Nc1cc2ccccc2cc1NC(=O)C(c1cccc2ccccc12)P(=O)(O)O (stereo not shown) [Cpd 132] | 7.9 µM
10 | O=C(Nc1ccc2ncccc2c1)C(c1cccc2ccccc12)P(=O)(O)O (stereo not shown) [Cpd 79] | 1.6 µM
11 | O=C(Nc1cc2ccccc2cc1C(=O)N1CCC2(CC1)C(=O)NCN2c1ccccc1)C(c1cccc2ccccc12)P(=O)(O)O (stereo not shown) [Cpd 104] | 3.88 ± 2.41 µM
12 | O=C(Nc1cc2ccccc2cc1OCC=Cc1ccccc1)C(c1cccc2ccccc12)P(=O)(O)O (stereo not shown) [Cpd 121] | 5.9 µM
13 | O=C(Nc1cc2ccccc2cc1CNC1CCCCC1)C(c1cccc2ccccc12)P(=O)(O)O (stereo not shown) [Cpd 70, [(3-Cyclohexylaminomethyl-naphthalen-2-ylcarbamoyl)-naphthalen-1-yl-methyl]-phosphonic acid] | 0.93 ± 0.07 µM
14 | O=C(Nc1cc2ccccc2cc1C(=O)N1CCC(n2c(=O)[nH]c3ccccc32)CC1)C(c1cccc2ccccc12)P(=O)(O)O (stereo not shown) [Cpd 93] | 2.7 µM
15 | O=C(O)C(C(=O)Nc1ccc2ccccc2c1)c1csc2ccc(Cl)cc12 (stereo not shown) [Cpd 84, [(5-Chloro-benzo[b]thiophen-3-yl)-(naphthalen-2-ylcarbamoyl)-methyl]-carboxylic acid] | 1.75 ± 0.285 µM
16 | CP(=O)(O)C(C(=O)Nc1ccc2ccccc2c1)c1c(C(=O)O)sc2ccccc12 (stereo not shown) [Cpd 118] | 5.72 ± 0.013 µM

Row | Compound | IC50
17 | O=C(Nc1ccc2ccccc2c1)C(c1csc2ccc(Br)cc12)P(=O)(O)O (stereo not shown) [Cpd 23, [(5-Bromo-benzo[b]thiophen-3-yl)-(naphthalen-2-ylcarbamoyl)-methyl]-phosphonic acid] | 0.1 ± 0.03 µM
18 | CN(C(=O)c1cc2ccccc2cc1NC(=O)C(c1cccc2ccccc12)P(=O)(O)O)C1CCCC1 (stereo not shown) [Cpd 91] | 2.32 µM
19 | Nc1ccc(/C=C/NC(=O)C(c2csc3ccc(Cl)cc23)P(=O)(O)O)cc1 (stereo not shown) [Cpd 12] | 0.038 ± 0.013 µM
20 | O=C(Nc1ccc2ccccc2c1)C(c1cccc2c1ccn2-c1ccccc1)P(=O)(O)O (stereo not shown) [Cpd 128] | 7.3 µM
21 | COc1ccc(C=CNC(=O)C(c2csc3ccc(Cl)cc23)P(=O)(O)O)cc1OC (stereo not shown) [Cpd 49] | 0.43 ± 0.09 µM
22 | O=C(NCc1ccccc1)OCc1cc2ccccc2cc1NC(=O)C(c1cccc2ccccc12)P(=O)(O)O (stereo not shown) [Cpd 72, [(3-Benzylcarbamoyloxymethyl-naphthalen-2-ylcarbamoyl)-naphthalen-1-yl-methyl]-phosphonic acid] | 1.3 ± 0.61 µM
23 | O=C(NC=Cc1ccc(C(F)(F)F)cc1)C(c1csc2ccc(Cl)cc12)P(=O)(O)O (stereo not shown) [Cpd 81] | 1.7 ± 0.21 µM
24 | O=C(Nc1cccc(Oc2ccccc2)c1)C(c1cccc2ccccc12)P(=O)(O)O (stereo not shown) [Cpd 138] | 8.7 µM
25 | O=C(Nc1ccc2c(c1)Cc1ccccc1-2)C(c1cccc2ccccc12)P(=O)(O)O (stereo not shown) [Cpd 106] | 4.3 µM
26 | CP(=O)(O)C(C(=O)Nc1cc2ccccc2o1)c1csc2ccc(Cl)cc12 (stereo not shown) [Cpd 146] | 0.11 µM
27 | COc1ccc(CCCP(=O)(O)C(C(=O)Nc2ccc3ccccc3c2)c2csc3ccc(Cl)cc23)cc1 (stereo not shown) [Cpd 53] | 0.49 ± 0.16 µM
28 | CP(=O)(O)C(C(=O)N/C=C/c1cccc(OC(F)(F)F)c1)c1csc2ccc(Cl)cc12 (stereo not shown) [Cpd 153] | 0.06 ± 0.01 µM
29 | NS(=O)(=O)OCC(C(=O)Nc1ccc2ccccc2c1)c1csc2ccc(Cl)cc12 (stereo not shown) [Cpd 120, Sulfamic acid 2-(5-chloro-benzo[b]thiophen-3-yl)-2-(naphthalen-2-ylcarbamoyl)-ethyl ester] | 5.86 ± 1.08 µM
30 | O=C(Nc1ccc2ccccc2c1)C(c1csc2ccc(Cl)cc12)P(=O)(O)CCCCc1ccccc1 (stereo not shown) [Cpd 51] | 0.46 ± 0.06 µM
31 | COc1cccc(/C=C/NC(=O)C(c2csc3ccc(Cl)cc23)P(C)(=O)O)c1OC (stereo not shown) [Cpd 165] | 0.078 ± 0.03 µM
32 | CP(=O)(O)C(C(=O)NC=Cc1ccccc1[N+](=O)[O-])c1csc2ccc(Cl)cc12 (stereo not shown) [Cpd 147] | 1.44 ± 0.48 µM

Further compounds by falling IC50, results first:

Row | IC50 | Compound
33 | 11 ± 1.2 µM | CP(=O)(O)C(C(=O)NC=Cc1ccc(C#N)cc1)c1csc2ccc(Cl)cc12 (stereo not shown) [Cpd 157]
34 | 9.54 ± 4.2 µM | CN(Cc1ccccc1)Cc1cc2ccccc2cc1NC(=O)C(c1cccc2ccccc12)P(=O)(O)O (stereo not shown) [Cpd 142]
35 | 9.5 µM | O=C(Nc1cc2ccccc2cc1NC(=O)C(c1cccc2ccccc12)P(=O)(O)O)C1CCN(C(=O)c2ccc3ccccc3c2)CC1 (stereo not shown) [Cpd 141, [(3-{[1-(Naphthalene-2-carbonyl)-piperidine-4-carbonyl]-amino}-naphthalen-2-ylcarbamoyl)-naphthalen-1-yl-methyl]-phosphonic acid]
36 | 8.08 ± 3.15 µM | O=C(Nc1cc2ccccc2cc1CNCCCCCO)C(c1cccc2ccccc12)P(=O)(O)O (stereo not shown) [Cpd 133]
37 | 7 ± 1.1 µM | CP(=O)(O)C(C(=O)Nc1ccc2ccccc2c1)c1c(C(=O)NCc2ccccc2)sc2ccccc12 (stereo not shown) [Cpd 127]
38 | 4.4 µM | O=C(C=Cc1cc2ccccc2cc1NC(=O)C(c1cccc2ccccc12)P(=O)(O)O)NCc1ccccc1 (stereo not shown) [Cpd 109, {[3-(2-Benzylcarbamoyl-vinyl)-naphthalen-2-ylcarbamoyl]-naphthalen-1-yl-methyl}-phosphonic acid]
39 | 3.63 µM | O=C(Nc1cc2ccccc2cc1C(=O)N1CCC(S(=O)(=O)c2ccccc2)C1)C(c1cccc2ccccc12)P(=O)(O)O (stereo not shown) [Cpd 103]
40 | 3.45 µM | CN(Cc1cc2ccccc2cc1NC(=O)C(c1cccc2ccccc12)P(=O)(O)O)C1CCN(C(=O)c2ccc3ccccc3c2)CC1 (stereo not shown) [Cpd 102, {[3-({Methyl-[1-(naphthalene-2-carbonyl)-piperidin-4-yl]-amino}-methyl)-naphthalen-2-ylcarbamoyl]-naphthalen-1-yl-methyl}-phosphonic acid]
41 | 2.96 ± 1.18 µM | O=C(Nc1ccc2ccccc2c1)C(c1csc2cccc(Br)c12)P(=O)(O)O (stereo not shown) [Cpd 99]
42 | 0.635 µM | O=C(Nc1ccc2ccsc2c1)C(c1cccc2ccccc12)P(=O)(O)O (stereo not shown) [Cpd 59]
43 | 0.388 ± 0.116 µM | CN(C(=O)c1cc2ccccc2cc1NC(=O)C(c1cccc2ccccc12)P(=O)(O)O)C1CC=C(c2ccccc2)CC1 (stereo not shown) [Cpd 46, ({3-[Methyl-(4-phenyl-cyclohex-3-enyl)-carbamoyl]-naphthalen-2-ylcarbamoyl}-naphthalen-1-yl-methyl)-phosphonic acid]
44 | 0.025 ± 0.01 µM | CP(=O)(O)C(C(=O)N/C=C/c1ccc(F)cc1F)c1csc2ccc(Cl)cc12 (stereo not shown) [Cpd 171]
45 | 0.019 ± 0.005 µM | Cc1ccc2scc(C(C(=O)Nc3ccc4ccccc4c3)P(=O)(O)O)c2c1 (stereo not shown) [Cpd 5]
46 | 0.0018 µM | O=C(NC=Cc1cc(F)cc(F)c1)C(c1csc2ccc(Cl)cc12)P(=O)(O)O (stereo not shown) [Cpd 199]
